Assay results reported in patent US20070269664A1, “Gas Barrier Laminated Film and Process for Producing the Same” (Sai Nippon Printing Co., Ltd., priority 2004, published 2007).

Tested on: cotton aphid (Aphis gossypii)
Assay: Foliar spray test on cotton seedlings infested with cotton aphid
Format: in vivo
Settings: 72 h, read-out: Percent Mortality
Protocol: Insecticidal testing was conducted on specific compounds of the present invention. Specifically, the compounds referenced below were evaluated on 7-10 day old cotton seedlings infested with cotton aphid (Aphis gossypii). At least 12 hours prior to the test, leaf cuttings containing about 50 adult aphids were placed on leaves of each of duplicate cotton seedlings for each rate of application of compound of formula (I). Solutions of the compounds of formula (I) were prepared for testing by serial dilution of a standard solution comprised of an appropriate amount of the test material in a water/acetone solvent, which contained a small amount of a surfactant. Rates of application of compounds of formula (I) may range from about 1000 parts per million (ppm), or more, to about 3 ppm, or less, in a rate series of, for example, 1000 ppm, 300 ppm, 100 ppm, 30 ppm, 10 ppm, and 3 ppm. The solutions containing each rate of application of compounds of formula (I) were then sprayed to run-off to both the upper and lower portions of the leaves of the aphid-infested cotton seedlings. Each test of foliar-applied compounds of formula (I) included appropriate standard insecticides of known insecticidal activity and blank treatments to aid in assessing the insecticidal activity of the compounds of formula (I). Upon completion of the spraying with compounds of formula (I), the cotton seedlings were maintained in a growth chamber for a period of 72 hours. After this time, the seedlings were examined for dead insects. Insects were classified as dead if they were off-color or brown and desiccated. Upon completion of the evaluation of the test, the percent mortality of the cotton aphid for each rate of application of compounds of formula (I) was determined by comparison of the total number of dead insects to the total number of insects in the test.

Compound | mortality at 1000 ppm [%] | mortality at 100 ppm [%]
CCCCOc1ccc(CCOn2c(C)nc(C)c2C)cc1Cl [Compound 9, 1-[2-(3-chloro-4-n-butoxyphenyl)ethoxy]-2,4,5-trimethylimidazole] | 100 | 
Cc1nc2ccccc2n1OCCc1ccc(C(C)(C)C)c(Cl)c1 [Compound 135, 1-[2-[3-chloro-4-(1,1-dimethylethyl)phenyl]ethoxy]-2-methylbenzimidazole] | 86 | 
CCCCOc1ccc(CCOn2c(C)nc3ccccc32)cc1Cl [Compound 163, 1-[2-(3-chloro-4-n-butoxyphenyl)ethoxy]-2-methylbenzimidazole] | 88 | 
CCCCOc1ccc(CCOn2c(C)nc3c2CCCC3)cc1Cl [Compound 244, 1-[2-(3-chloro-4-n-butoxyphenyl)ethoxy]-2-methyl-4,5,6,7-tetrahydrobenzimidazole] | 98 | 
CCCCOc1ccc(CCOn2c(C)nc3c(F)cccc32)cc1Cl [Compound 246, 1-[2-(3-chloro-4-n-butoxyphenyl)ethoxy]-4-fluoro-2-methylbenzimidazole] | 100 | 
CCCCOc1ccc(CCOn2c(C)nc3c(C)cccc32)cc1Cl [Compound 266, 1-[2-(3-chloro-4-n-butoxyphenyl)ethoxy]-2,4-dimethylbenzimidazole] | 100 | 
CCCCOc1ccc(CCOn2nnc3ccccc32)cc1Cl [Compound 285, 1-[2-(3-chloro-4-n-butoxyphenyl)ethoxy]-1H-benzotriazole] | 31 | 
CCCOC(=O)c1ccc(CCNn2c(C)nc3ccccc32)cc1Cl [Compound 302, propyl 2-chloro-4-[2-(2-methylbenzimidazol-1-ylamino)ethyl]benzoate] |  | 84
CCCCOc1ccc(C(C)(C)CNn2c(C)nc3ccccc32)cc1 [Compound 305, 1-[[2-methyl-2-(4-n-butoxyphenyl)propyl]amino]-2-methylbenzimidazole] | 96 | 
CCCCOc1ccc(CCNn2c(C)nc3ccccc32)cc1Cl [Compound 314, 1-[2-(3-chloro-4-n-butoxyphenyl)ethylamino]-2-methylbenzimidazole] | 100 | 
CCCCOc1c(C)cc(CCNn2c(C)nc3ccccc32)cc1C [Compound 320, 1-[2-(3,5-dimethyl-4-n-butoxyphenyl)ethylamino]-2-methylbenzimidazole] |  | 99
CCCCOc1ccc(CCNn2c(C)nc3c(F)cccc32)cc1Cl [Compound 323, 1-[2-(3-chloro-4-n-butoxyphenyl)ethylamino]-4-fluoro-2-methylbenzimidazole] |  | 96
CCCCOc1c(C)cc(CCNn2c(C)nc3cc(F)ccc32)cc1C [Compound 329, 1-[2-(3,5-dimethyl-4-n-butoxyphenyl)ethylamino]-5-fluoro-2-methylbenzimidazole] |  | 93
CCCC(CCC)Oc1ccc(CCOn2c(C)nc3c(C)cccc32)cc1 [Compound 413, 1-[2-[4-(1-propylbutoxy)phenyl]ethoxy]-2,4-dimethylbenzimidazole] |  | 80
CCCCOc1ccc(CCNn2c(=O)n(C)c3ccccc32)cc1Cl [Compound 417, 1-[2-(3-chloro-4-n-butoxyphenyl)ethylamino]-1,3-dihydro-3-methyl-2H-benzimidazol-2-one] |  | 3
CCON=Cc1c(F)cc(CCOn2c(C)nc3ccccc32)cc1F [Compound 1323, 1-[2-(3,5-difluoro-4-ethoxyiminomethylphenyl)ethoxy]-2-methylbenzimidazole] |  | 97
